Usually IC50 stands for the concentration at which inhibition is half-maximal.

Activity calls are given as the source filed them. The calls are words filed in the database; no cut-off is given here.

Series [1] has as its target T1, Receptor-interacting serine/threonine-protein kinase 3 (Homo sapiens, UniProt Q9Y572). Nature of the series: Inhibition of recombinant human RIP3 kinase domain (1 to 328 residues) expressed in baculovirus expression system by fluorescence polarization assay. For orientation: In fluorescence polarisation assays a small probe gives low polarisation when free and higher when bound to something large.

The target in series [2] is T1, Receptor-interacting serine/threonine-protein kinase 3. Nature of the series: Inhibition of recombinant human RIP3 kinase activity by ADP-glo assay. Background: ADP-Glo first removes unused ATP, then detects ADP through luciferase.
For series [3], the target named is G protein-coupled receptor kinase 5 (Homo sapiens) (UniProt P34947). Nature of the series: Residual activity of human GRK5 using casein as substrate at 1 uM in presence of 32P-ATP by Hotspot assay relative to control.
Series [4] deals with Serine/threonine-protein kinase Nek6 (Homo sapiens) (UniProt Q9HC98). Nature of the series: Inhibition of human NEK6 using casein as substrate at 1 uM in presence of 32P-ATP by Hotspot assay relative to control; values are per cent of control.
Series [5] deals with Serine/threonine-protein kinase tousled-like 2 (Homo sapiens) (UniProt Q86UE8). In words: Inhibition of human TLK2 using casein as substrate at 1 uM in presence of 32P-ATP by Hotspot assay relative to control; values are per cent of control.
Series [6] addresses Tyrosine-protein kinase receptor UFO (Homo sapiens) (UniProt P30530). Nature of the series: Inhibition of human AXL using poly[Glu:Tyr] (4:1) as substrate at 1 uM in presence of 32P-ATP by Hotspot assay relative to control; values are per cent of control.
The target in series [7] is Serine/threonine-protein kinase ULK2 (Homo sapiens) (UniProt Q8IYT8). Nature of the series: Inhibition of human ULK2 using myelin basic protein as substrate at 1 uM in presence of 32P-ATP by Hotspot assay relative to control; values are per cent of control.
The target of series [8] is Serine/threonine-protein kinase ULK3 (Homo sapiens) (UniProt Q6PHR2). Nature of the series: Inhibition of human ULK3 using myelin basic protein as substrate at 1 uM in presence of 32P-ATP by Hotspot assay relative to control; values are per cent of control.
Series [9] addresses Mitogen-activated protein kinase 11 (Homo sapiens) (UniProt Q15759). In words: Inhibition of human P38b/MAPK11 using myelin basic protein as substrate at 1 uM in presence of 32P-ATP by Hotspot assay relative to control; values are per cent of control.
Series [10] addresses T2, Mitogen-activated protein kinase 13 (Homo sapiens) (UniProt O15264).
T2 sequence (whole entry): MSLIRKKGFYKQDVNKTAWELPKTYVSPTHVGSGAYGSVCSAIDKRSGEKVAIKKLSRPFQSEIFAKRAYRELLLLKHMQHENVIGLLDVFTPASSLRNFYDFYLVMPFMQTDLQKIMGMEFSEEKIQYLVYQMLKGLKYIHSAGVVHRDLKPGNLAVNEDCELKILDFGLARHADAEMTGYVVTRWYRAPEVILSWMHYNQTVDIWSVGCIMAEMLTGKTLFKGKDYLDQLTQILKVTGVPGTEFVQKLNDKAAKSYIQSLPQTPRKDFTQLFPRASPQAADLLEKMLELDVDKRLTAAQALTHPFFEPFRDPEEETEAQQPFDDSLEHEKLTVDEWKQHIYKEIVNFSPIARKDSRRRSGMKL
In words: Inhibition of human P38d/MAPK13 using myelin basic protein as substrate at 1 uM in presence of 32P-ATP by Hotspot assay relative to control; values are per cent of control.

Series [11] relates to SVEC4-10. In words: Cytotoxicity against mouse SVEC4-10 cells assessed as induction of apoptosis at 3 to 10 uM incubated for 18 hrs by Cell Titer-Glo luminescent cell viability assay. The class given is toxicity, cell-based. As to conditions: svec4-10, 18 h, dose 3-10 µM. (In general: Cellular ATP, detected with luciferase, serves as a proxy for viable cell number.)
In series [12] the test system is L929. In words: Cytotoxicity against mouse L929 cells assessed as induction of apoptosis at 3 to 10 uM incubated for 18 hrs by Cell Titer-Glo luminescent cell viability assay. It counts as toxicity, cell-based. As to conditions: l929, 18 h, dose 3-10 µM.
For series [13], the system named is 3T3SA. Nature of the series: Cytotoxicity against mouse 3T3SA cells assessed as induction of apoptosis at 3 to 10 uM incubated for 18 hrs by Cell Titer-Glo luminescent cell viability assay. As to conditions: dose 3-10 µM. The class given is toxicity, cell-based.
Series [14] relates to MEF. In words: Cytotoxicity against MEF cells assessed as induction of apoptosis at 3 to 10 uM incubated for 18 hrs by Cell Titer-Glo luminescent cell viability assay. The following applies: mouse, dose 3-10 µM. The class given is toxicity, cell-based.
In series [15] the test system is SVEC4-10. Nature of the series: Cytotoxicity against mouse SVEC4-10 cells assessed as induction of apoptosis at 10 uM incubated for 18 hrs in presence of zVAD by Cell Titer-Glo luminescent cell viability assay. It counts as toxicity, cell-based. The following applies: svec4-10, 18 h.
The test system of series [16] is L929. In words: Cytotoxicity against mouse L929 cells assessed as induction of apoptosis at 10 uM incubated for 18 hrs in presence of zVAD by Cell Titer-Glo luminescent cell viability assay. It counts as toxicity, cell-based. As to conditions: l929, 18 h.
In series [17] the test system is 3T3SA. Nature of the series: Cytotoxicity against mouse 3T3SA cells assessed as induction of apoptosis at 10 uM incubated for 18 hrs in presence of zVAD by Cell Titer-Glo luminescent cell viability assay. The class given is toxicity, cell-based.
The subject of series [18] is MEF. Nature of the series: Cytotoxicity against MEF cells assessed as induction of apoptosis at 10 uM incubated for 18 hrs in presence of zVAD by Cell Titer-Glo luminescent cell viability assay. It counts as toxicity, cell-based. The following applies: mouse.
For series [19], the system named is L929. In words: Inhibition of TLR-3 induced necroptosis in mouse L929 cells assessed as increase in cell viability at 1 uM incubated for 18 hrs in presence of poly(I:C) by Cell Titer-Glo luminescent cell viability assay. The class given is functional, cell-based.
Series [20] relates to SVEC4-10. In words: Induction of apoptosis in mouse SVEC4-10 cells transfected with RIP3 shRNA at 10 uM incubated for 18 hrs by Cell Titer-Glo luminescent cell viability assay. It counts as toxicity, cell-based. The following applies: svec4-10, 18 h.
Series [21] relates to 3T3SA. In words: Induction of apoptosis in mouse 3T3SA cells incubated for 18 hrs in presence of zLEHD by Cell Titer-Glo luminescent cell viability assay. It counts as toxicity, cell-based.
Series [22] relates to 3T3SA. Nature of the series: Inhibition of necroptosis in mouse 3T3SA cells incubated for 18 hrs in presence of Nec-1 by Cell Titer-Glo luminescent cell viability assay. It counts as functional, cell-based.
Series [23] has as its system 3T3SA. Nature of the series: Induction of apoptosis in RIP3shRNA transfected mouse 3T3SA cells co-transfected with shRNA-resistant RIP3 D143N mutant pre-tranfected for 16 hrs followed by compound addition and measured after 18 hrs in presence of zVAD by Cell Titer-Glo luminescent cell viability assay. It counts as toxicity, cell-based.
Series [24] has as its system 3T3SA. Nature of the series: Induction of apoptosis in RIP3 shRNA transfected mouse 3T3SA cells co-transfected with shRNA resistant RIP3 K51A mutant assessed as accumulation of RIP3 K51A mutant in pellet incubated for 3 hrs in presence of zVAD by immunoblot analysis. It counts as toxicity, cell-based.
Series [25] concerns 3T3SA. Nature of the series: Induction of apoptosis in RIP3 shRNA transfected mouse 3T3SA cells co-transfected with shRNA resistant RIP3 D143N mutant assessed as accumulation of FLAG-tagged RIP3 D143N mutant in pellet incubated for 3 hrs in presence of zVAD by immunoblot analysis. It counts as toxicity, cell-based.
Series [26] relates to MEF. In words: Induction of apoptosis in MEF cells expressing RIP3 K51A/K51A mutant incubated for 18 hrs by Cell Titer-Glo luminescent cell viability assay. As to conditions: mouse. The class given is toxicity, cell-based.

Sequence of Tyrosine-protein kinase receptor UFO (Homo sapiens) (P30530 whole entry): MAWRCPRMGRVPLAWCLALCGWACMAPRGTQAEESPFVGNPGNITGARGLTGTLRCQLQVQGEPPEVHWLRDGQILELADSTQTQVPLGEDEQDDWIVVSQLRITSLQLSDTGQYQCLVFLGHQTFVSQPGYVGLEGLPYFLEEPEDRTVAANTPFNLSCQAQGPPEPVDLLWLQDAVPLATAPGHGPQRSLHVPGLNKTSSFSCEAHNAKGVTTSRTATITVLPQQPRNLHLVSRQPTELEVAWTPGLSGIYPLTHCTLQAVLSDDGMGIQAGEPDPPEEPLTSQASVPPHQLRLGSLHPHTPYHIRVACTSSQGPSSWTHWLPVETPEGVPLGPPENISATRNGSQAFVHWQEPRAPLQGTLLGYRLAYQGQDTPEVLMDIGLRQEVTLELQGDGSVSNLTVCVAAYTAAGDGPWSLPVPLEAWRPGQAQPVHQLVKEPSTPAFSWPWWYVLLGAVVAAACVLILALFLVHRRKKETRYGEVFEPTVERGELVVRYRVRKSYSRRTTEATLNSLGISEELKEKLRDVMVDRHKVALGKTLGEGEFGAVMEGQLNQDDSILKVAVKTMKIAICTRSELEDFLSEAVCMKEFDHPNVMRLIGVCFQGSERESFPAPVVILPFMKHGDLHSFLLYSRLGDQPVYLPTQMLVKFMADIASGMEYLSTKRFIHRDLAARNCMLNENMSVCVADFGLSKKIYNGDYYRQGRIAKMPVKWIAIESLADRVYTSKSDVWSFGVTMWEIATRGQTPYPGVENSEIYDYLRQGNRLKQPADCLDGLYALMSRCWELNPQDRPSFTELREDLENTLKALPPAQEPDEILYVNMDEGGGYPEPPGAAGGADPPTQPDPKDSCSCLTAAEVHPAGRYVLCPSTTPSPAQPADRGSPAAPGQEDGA
Sequence of G protein-coupled receptor kinase 5 (Homo sapiens) (P34947 whole entry, looked up): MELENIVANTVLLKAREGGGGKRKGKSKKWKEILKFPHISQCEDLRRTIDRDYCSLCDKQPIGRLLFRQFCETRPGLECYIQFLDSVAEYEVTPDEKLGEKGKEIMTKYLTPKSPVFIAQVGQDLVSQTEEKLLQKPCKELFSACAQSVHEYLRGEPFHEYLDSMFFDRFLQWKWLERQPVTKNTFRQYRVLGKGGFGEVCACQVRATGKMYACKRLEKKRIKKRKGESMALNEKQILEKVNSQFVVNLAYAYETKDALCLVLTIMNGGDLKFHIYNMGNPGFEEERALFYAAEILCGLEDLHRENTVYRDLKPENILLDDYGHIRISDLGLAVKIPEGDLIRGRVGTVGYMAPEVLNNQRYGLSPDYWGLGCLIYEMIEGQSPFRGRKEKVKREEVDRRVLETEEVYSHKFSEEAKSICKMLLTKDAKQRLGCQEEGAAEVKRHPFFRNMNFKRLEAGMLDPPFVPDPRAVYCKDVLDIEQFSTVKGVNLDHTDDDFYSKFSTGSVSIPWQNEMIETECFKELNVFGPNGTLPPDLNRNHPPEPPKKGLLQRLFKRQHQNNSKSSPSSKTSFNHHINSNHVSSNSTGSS
Sequence of Serine/threonine-protein kinase Nek6 (Homo sapiens) (Q9HC98 whole entry): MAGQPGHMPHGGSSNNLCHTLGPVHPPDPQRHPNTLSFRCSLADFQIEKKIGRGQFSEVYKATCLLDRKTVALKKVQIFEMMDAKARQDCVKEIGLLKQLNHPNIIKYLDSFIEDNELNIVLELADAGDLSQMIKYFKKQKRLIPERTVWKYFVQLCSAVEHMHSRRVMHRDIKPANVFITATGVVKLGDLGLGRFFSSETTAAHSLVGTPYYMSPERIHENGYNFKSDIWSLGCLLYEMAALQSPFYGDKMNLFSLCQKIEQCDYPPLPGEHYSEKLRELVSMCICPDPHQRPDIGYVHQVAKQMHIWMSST
Sequence of Mitogen-activated protein kinase 11 (Homo sapiens) (Q15759 whole entry): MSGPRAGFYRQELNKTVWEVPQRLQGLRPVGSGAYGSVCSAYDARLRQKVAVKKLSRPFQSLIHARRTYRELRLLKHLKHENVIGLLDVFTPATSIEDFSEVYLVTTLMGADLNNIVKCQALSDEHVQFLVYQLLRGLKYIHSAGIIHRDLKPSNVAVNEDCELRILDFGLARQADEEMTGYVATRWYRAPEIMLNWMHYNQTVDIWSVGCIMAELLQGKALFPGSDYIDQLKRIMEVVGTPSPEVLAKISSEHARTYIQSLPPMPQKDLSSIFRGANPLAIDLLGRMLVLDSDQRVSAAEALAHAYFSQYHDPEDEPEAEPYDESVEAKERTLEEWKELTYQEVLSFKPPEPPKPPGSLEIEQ
T1 sequence (Q9Y572 whole entry, the tested form may be a part): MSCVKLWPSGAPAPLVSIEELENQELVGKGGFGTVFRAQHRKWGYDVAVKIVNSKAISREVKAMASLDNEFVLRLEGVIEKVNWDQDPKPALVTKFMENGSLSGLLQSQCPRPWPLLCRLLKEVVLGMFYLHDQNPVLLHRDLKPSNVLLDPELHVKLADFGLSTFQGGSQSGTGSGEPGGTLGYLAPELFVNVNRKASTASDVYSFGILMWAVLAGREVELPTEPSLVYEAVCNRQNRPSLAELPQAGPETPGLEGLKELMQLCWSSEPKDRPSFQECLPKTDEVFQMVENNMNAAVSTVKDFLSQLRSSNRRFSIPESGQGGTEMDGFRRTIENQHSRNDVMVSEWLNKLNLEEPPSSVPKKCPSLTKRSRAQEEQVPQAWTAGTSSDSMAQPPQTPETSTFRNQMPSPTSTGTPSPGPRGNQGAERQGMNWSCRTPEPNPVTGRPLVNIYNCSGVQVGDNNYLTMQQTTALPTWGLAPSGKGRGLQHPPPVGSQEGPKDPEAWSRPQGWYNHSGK
Sequence of Serine/threonine-protein kinase ULK2 (Homo sapiens) (Q8IYT8 whole entry): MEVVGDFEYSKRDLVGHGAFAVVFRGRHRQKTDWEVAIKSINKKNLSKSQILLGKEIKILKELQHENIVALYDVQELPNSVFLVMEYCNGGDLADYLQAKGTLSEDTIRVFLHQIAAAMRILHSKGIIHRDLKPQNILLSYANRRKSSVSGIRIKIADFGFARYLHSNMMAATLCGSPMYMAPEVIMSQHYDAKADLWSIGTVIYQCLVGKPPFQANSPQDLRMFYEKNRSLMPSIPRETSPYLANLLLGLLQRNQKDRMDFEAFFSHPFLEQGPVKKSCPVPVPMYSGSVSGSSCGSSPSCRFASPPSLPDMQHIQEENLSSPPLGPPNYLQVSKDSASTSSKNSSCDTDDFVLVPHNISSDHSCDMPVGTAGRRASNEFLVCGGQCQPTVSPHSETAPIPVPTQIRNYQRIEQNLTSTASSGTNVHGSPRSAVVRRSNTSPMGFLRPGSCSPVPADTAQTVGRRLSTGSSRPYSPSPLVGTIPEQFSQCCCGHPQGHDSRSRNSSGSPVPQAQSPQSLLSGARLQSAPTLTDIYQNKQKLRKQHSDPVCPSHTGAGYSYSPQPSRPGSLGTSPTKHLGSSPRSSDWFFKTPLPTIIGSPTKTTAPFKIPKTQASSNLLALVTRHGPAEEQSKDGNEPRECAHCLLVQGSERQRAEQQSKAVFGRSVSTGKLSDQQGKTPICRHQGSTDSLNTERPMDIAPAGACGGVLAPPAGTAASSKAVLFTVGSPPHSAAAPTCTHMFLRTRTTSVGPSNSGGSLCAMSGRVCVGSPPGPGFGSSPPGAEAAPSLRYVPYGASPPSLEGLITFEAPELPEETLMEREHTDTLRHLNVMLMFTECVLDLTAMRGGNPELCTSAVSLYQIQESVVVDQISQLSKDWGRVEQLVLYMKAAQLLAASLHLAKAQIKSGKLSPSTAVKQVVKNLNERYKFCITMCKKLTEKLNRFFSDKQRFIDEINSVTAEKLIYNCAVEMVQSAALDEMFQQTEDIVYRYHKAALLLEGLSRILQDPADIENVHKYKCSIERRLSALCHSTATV
Sequence of Serine/threonine-protein kinase ULK3 (Homo sapiens) (Q6PHR2 whole entry): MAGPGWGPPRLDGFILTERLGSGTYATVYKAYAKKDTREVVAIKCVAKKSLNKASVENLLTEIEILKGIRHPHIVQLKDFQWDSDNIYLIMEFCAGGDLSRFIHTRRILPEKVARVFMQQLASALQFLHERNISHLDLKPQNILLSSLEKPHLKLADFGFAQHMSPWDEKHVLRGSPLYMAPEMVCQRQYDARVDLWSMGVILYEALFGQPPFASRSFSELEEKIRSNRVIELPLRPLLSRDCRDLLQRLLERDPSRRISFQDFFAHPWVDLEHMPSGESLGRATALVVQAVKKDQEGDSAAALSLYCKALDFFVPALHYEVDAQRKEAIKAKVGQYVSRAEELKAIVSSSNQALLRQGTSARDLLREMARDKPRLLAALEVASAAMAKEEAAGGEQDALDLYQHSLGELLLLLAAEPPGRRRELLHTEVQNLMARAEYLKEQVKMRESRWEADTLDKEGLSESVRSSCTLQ
Sequence of Serine/threonine-protein kinase tousled-like 2 (Homo sapiens) (Q86UE8 whole entry, looked up): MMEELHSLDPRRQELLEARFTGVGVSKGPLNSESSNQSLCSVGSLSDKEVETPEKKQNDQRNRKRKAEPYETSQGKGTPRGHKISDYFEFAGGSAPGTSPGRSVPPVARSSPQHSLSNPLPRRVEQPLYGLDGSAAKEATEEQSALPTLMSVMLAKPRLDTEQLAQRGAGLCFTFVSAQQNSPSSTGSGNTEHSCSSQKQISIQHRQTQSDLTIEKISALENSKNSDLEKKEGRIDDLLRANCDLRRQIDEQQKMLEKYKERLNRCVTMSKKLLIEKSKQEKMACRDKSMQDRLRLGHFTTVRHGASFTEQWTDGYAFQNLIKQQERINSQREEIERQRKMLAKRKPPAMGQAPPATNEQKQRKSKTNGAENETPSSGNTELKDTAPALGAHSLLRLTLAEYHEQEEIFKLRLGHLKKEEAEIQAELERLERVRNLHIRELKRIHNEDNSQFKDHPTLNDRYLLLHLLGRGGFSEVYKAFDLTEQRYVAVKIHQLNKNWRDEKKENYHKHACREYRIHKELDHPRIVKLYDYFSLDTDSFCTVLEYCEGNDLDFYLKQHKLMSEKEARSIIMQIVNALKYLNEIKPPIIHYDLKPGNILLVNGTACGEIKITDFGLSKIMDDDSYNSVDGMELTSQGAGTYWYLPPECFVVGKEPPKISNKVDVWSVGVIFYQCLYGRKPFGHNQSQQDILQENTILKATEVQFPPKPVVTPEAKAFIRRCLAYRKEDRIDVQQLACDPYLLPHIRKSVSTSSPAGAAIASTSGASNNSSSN

With `CNC(=O)c1ccc2c(c1)ncn2-c1ccc(CC(=O)OC(C)(C)C)cc1`, the IC50 in series [1] is 0.9 nM; in series [2] it was 0.3 nM. For the same molecule, the residual activity was 94.7% in series [3]; 104% in series [4]; 94.4% in series [5]; 92.6% in [6]; 96.1% in [7]; 95.4% in series [8]. For the same molecule, the residual activity in series [9] is 97.1%; in series [10], 104%.
For the molecule `Cc1cc(-c2cnc(N)c3c(-c4ccc5scnc5c4)csc23)n(C)n1`, the IC50 was 8.6 nM in series [1] and 6.5 nM in [2]. The Activity entry is “Toxic” with SVEC4-10 [11]; “Toxic” in the series on L929 [12]; “Toxic” in the series on 3T3SA [13]; “Toxic” in the series on MEF [14]; “Non-Toxic” in the series with SVEC4-10 [15]; “Non-Toxic” in the series on L929 [16]. Also, the Activity entry in the series with 3T3SA [17] and with MEF [18] was “Non-Toxic” each time. The residual activity in series [3] amounted to 96.5%; in [4], 96%; in series [6], 101%; in series [9] it was 37.8%; in series [10] it was 103%.
`CC(C)S(=O)(=O)c1ccc2nccc(Nc3ccc4scnc4c3)c2c1`: the inhibition entry in the series on L929 [19] and with 3T3SA [22] was “Active” throughout. The Activity result is “Toxic” in the series with SVEC4-10 [11]; “Toxic” with L929 [12]; “Toxic” in the series with 3T3SA [13]; “Toxic” in the series on MEF [14]; “Non-Toxic” with SVEC4-10 [15]; “Non-Toxic” in the series on L929 [16]. Also, the Activity result with 3T3SA [17] is recorded as “Non-Toxic”; in the series with MEF [18] it was “Non-Toxic”; in the series with SVEC4-10 [20] it was “Non-Toxic”; in the series on 3T3SA [21], “Toxic”; with 3T3SA [23], “Non-Toxic”; in the series with 3T3SA [24] it was “Toxic”. In addition, the Activity result in the series with 3T3SA [25] and in the series with MEF [26] was “Toxic” each time. In addition, the residual activity stood at 97.4% in [3]; 104% in series [4]; 101% in series [6]; 102% in series [9]; 94.8% in [10].

The values above are taken from ChEMBL document CHEMBL5649166, “RIP3 induces apoptosis independent of pronecrotic kinase activity” (Mol Cell, 2014).
